Test results from patent US20100291163A1, “ORAL CARE COMPOSITION COMPRISING NANOPARTICULATE TITANIUM DIOXIDE” (priority 2006, published 2010).

Assay: Microindentation as a measure of enamel hardness: softening by 1.0% w/w citric acid pH 3.8 after 120 s treatment
Design: species or system human
Settings: FIG. 1
Protocol: Human enamel chips were mounted in acrylic resin and polished flat using silicon carbide paper (1200 and 2400 grit). The specimens were then randomised and divided into three treatment groups (n=6). The treatment groups were 300 ppm fluoride (sodium fluoride); glycerin-coated titanium dioxide (with a mean particle size of 20 nm) aqueous suspension, 2.5% w/v (UV Titan M212, Kemira, Aston Chemicals); and deionised water. The baseline hardness of each specimen was determined using a Struers Duramin Microindentor, fitted with a Vickers diamond indenter. Hardness values were expressed as Vickers Hardness Numbers (VHN). A load of 1.961N was applied to the specimens, with a dwell time of 20 seconds.
Specimens were placed in 30 ml of one of the three test solutions with agitation for 120 seconds, before rinsing with deionised water. After treatment, microhardness measurements were repeated. Erosion was then performed by incubating the mounted specimens for 30 minutes in 10 ml of a 1.0% w/w solution of citric acid, pH 3.8. Specimens were removed from the erosive challenge at 10 minute intervals and the surface microhardness determined.
The values for enamel hardness have been normalised relative to the individual baseline microhardness values, thus data at subsequent time points reflects softening of the enamel. The error bars in FIG. 1 represent standard deviations.
The treatments tested in this study were: 2.5% w/v titanium dioxide aqueous suspensions, specifically 20 nm glycerin-coated titanium dioxide (UV Titan M212, Kemira, Aston Chemicals), 20 nm PVP-coated titanium dioxide (UV Titan M263, Kemira, Aston Chemicals), 17 nm Stearic acid-coated titanium dioxide (UV Titan M160, Kemira, Aston Chemicals) and 14 nm uncoated titanium dioxide (UV Titan X140, Kemira, Aston Chemicals). A glycerin only negative control was used in the study.

SMILES: [F-].[Na+] [300 ppm fluoride, sodium fluoride]
- enamel softening (microhardness normalised to baseline) during citric acid exposure (1.0% w/w citric acid pH 3.8, up to 30 min, 120 s treatment): softened during the period in which they were exposed to citric acid, increasingly so as the incubation time increased
- enamel softening versus water-treated enamel (after 20 and 30 mins in citric acid): softened significantly less than enamel treated with water
- extent of enamel softening, fluoride versus nanoparticle suspension (after 20 mins citric acid exposure): equivalent in their extent of softening
